From PubChem BioAssay AID292 (DTP/NCI, 2004)
Where “and” joins values, the source holds several entries; their conditions need not be identical. Equal values may be shown once. Toxic doses and inconclusive results are not listed.

Tested on: B6C3F1 mice, ip Sarcoma M5076, median survival T/C
Assay: NCI In Vivo Anticancer Drug Screen. Data for tumor model Sarcoma M5076 (intraperitoneal) in B6C3F1 mice
Settings: endpoint: median survival time, schedule: Q04DX004 (ip), higher = longer survival
Method in brief: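 Antitumour effect is judged in tumour-bearing mice by comparing survival after compound dosing against vehicle-only animals, reported as T/C.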

[1] = dose: 12.5 mg/kg/injection, vehicle: saline with Tween-80
[2] = dose: 25.0 mg/kg/injection, vehicle: saline with Tween-80
[3] = dose: 50.0 mg/kg/injection, vehicle: saline with Tween-80
[4] = dose: 100.0 mg/kg/injection, vehicle: saline with Tween-80
[5] = dose: 25.0 mg/kg/injection, vehicle: Klucel (hydroxypropylcellulose) (HPC)
[6] = dose: 50.0 mg/kg/injection, vehicle: Klucel (hydroxypropylcellulose) (HPC)
[7] = dose: 100.0 mg/kg/injection, vehicle: Klucel (hydroxypropylcellulose) (HPC)
[8] = dose: 200.0 mg/kg/injection, vehicle: Klucel (hydroxypropylcellulose) (HPC)
[9] = dose: 37.5 mg/kg/injection, vehicle: saline with Tween-80
[10] = dose: 75.0 mg/kg/injection, vehicle: saline with Tween-80
[11] = dose: 150.0 mg/kg/injection, vehicle: saline with Tween-80
[12] = dose: 25.0 mg/kg/injection, vehicle: water
[13] = dose: 50.0 mg/kg/injection, vehicle: water
[14] = dose: 18.75 mg/kg/injection, vehicle: saline with Tween-80
[15] = dose: 200.0 mg/kg/injection, vehicle: saline with Tween-80
[16] = dose: 400.0 mg/kg/injection, vehicle: Klucel (hydroxypropylcellulose) (HPC)
[17] = dose: 400.0 mg/kg/injection, vehicle: saline with Tween-80

Question: For `CCOC(=O)NC1CCc2cc(OC)c(OC)c(OC)c2-c2ccc(OC)c(=O)cc21` (stereo not drawn), which T/C (dose: 2.5 mg/kg/injection, vehicle: Klucel (hydroxypropylcellulose) (HPC)) is on record?
Answer: The T/C was 150 % of control.

Question: What about the T/C (dose: 5.0 mg/kg/injection, vehicle: Klucel (hydroxypropylcellulose) (HPC)) of the same molecule?
Answer: The T/C was 183 % of control.

Question: And the T/C (dose: 10.0 mg/kg/injection, vehicle: Klucel (hydroxypropylcellulose) (HPC))?
Answer: Its T/C is 176 % of control.

Question: What about the T/C (dose: 20.0 mg/kg/injection, vehicle: Klucel (hydroxypropylcellulose) (HPC)) of the same molecule?
Answer: The T/C was 161 % of control and 178 % of control.

Question: `COc1cc2c(c(OC)c1OC)-c1ccc(OC)c(=O)cc1[C@@H](NC(C)=O)CC2` was tested. Which T/C (dose: 0.38 mg/kg/injection, vehicle: saline) did it give?
Answer: Its T/C is 106 % of control.

Question: And the T/C (dose: 0.54 mg/kg/injection, vehicle: saline)?
Answer: Its T/C is 101 % of control.

Question: And the T/C (dose: 0.75 mg/kg/injection, vehicle: saline)?
Answer: Its T/C is 112 % of control.

Question: What about the T/C (dose: 0.9 mg/kg/injection, vehicle: saline) of the same molecule?
Answer: Its T/C is 116 % of control.

Question: And the T/C (dose: 2.5 mg/kg/injection, vehicle: saline)?
Answer: Its T/C is 123 % of control.

Question: And the T/C (dose: 185.0 micrograms/kg/injection, vehicle: saline)?
Answer: The T/C was 96 % of control.

Question: And the T/C (dose: 375.0 micrograms/kg/injection, vehicle: saline)?
Answer: Its T/C is 95 % of control.

Question: And the T/C (dose: 750.0 micrograms/kg/injection, vehicle: saline)?
Answer: Its T/C is 100 % of control.

Question: And the T/C (dose: 1500.0 micrograms/kg/injection, vehicle: saline)?
Answer: The T/C was 100 % of control.

Question: And the T/C (dose: 3000.0 micrograms/kg/injection, vehicle: saline)?
Answer: The T/C was 97 % of control.

Question: `NCCSC(C[N+](=O)[O-])c1ccccc1Cl` (stereo not drawn) was tested. Which T/C [1] did it give?
Answer: Its T/C is 90 % of control and 100 % of control.

Question: And the T/C [2]?
Answer: The T/C was 92 % of control and 105 % of control.

Question: And the T/C [3]?
Answer: Its T/C is 95 % of control and 98 % of control.

Question: What about the T/C [4] of the same molecule?
Answer: Its T/C is 109 % of control.

Question: What does the source list for `CCCCCNc1ncnc2c(C)[nH]nc12`?
Answer: T/C [5]: 105 % of control; T/C [6]: 97 % of control; T/C [7]: 103 % of control; T/C [8]: 88 % of control

Question: How did the T/C [9] turn out when `COc1ccc(Nc2c3sc4cc(OC)ccc4nc-3c3ccccc3c2=O)cc1` was run?
Answer: The T/C was 105 % of control.

Question: And the T/C [10]?
Answer: Its T/C is 89 % of control.

Question: And the T/C [11]?
Answer: The T/C was 86 % of control.

Question: Which results are given for `CN1CCN(c2c(C(=O)Nc3ccc([N+](=O)[O-])cc3)cc([N+](=O)[O-])cc2[N+](=O)[O-])CC1`?
Answer: T/C [9]: 96 % of control; T/C [10]: 91 % of control

Question: With `CC1=Nc2cc(N)nn2C(=O)C1` as the molecule, how does the T/C [3] read?
Answer: The T/C was 96 % of control.

Question: What about the T/C [4] of the same molecule?
Answer: Its T/C is 99 % of control.

Question: What does the source list for `C/C=C\C1OC1(C)c1cc(=O)c2c(C)cc3c(c2o1)C(=O)c1c(O)c(C2CC(C)(N(C)C)C(OC(C)=O)C(C)O2)cc(C2CC(N(C)C)C(O)C(C)O2)c1C3=O` (stereo not drawn)?
Answer: T/C (dose: 0.19 mg/kg/injection, vehicle: saline + alcohol): 105 % of control; T/C (dose: 0.38 mg/kg/injection, vehicle: saline + alcohol): 110 % of control; T/C (dose: 0.75 mg/kg/injection, vehicle: saline + alcohol): 120 % of control; T/C (dose: 3.0 mg/kg/injection, vehicle: saline + alcohol): 156 % of control

Question: For `N#Cc1ccc(NN=O)nc1`, which T/C (dose: 6.25 mg/kg/injection, vehicle: water) is on record?
Answer: Its T/C is 124 % of control.

Question: What about the T/C (dose: 6.5 mg/kg/injection, vehicle: water) of the same molecule?
Answer: The T/C was 116 % of control.

Question: And the T/C [12]?
Answer: The T/C was 152 % of control.

Question: What about the T/C [13] of the same molecule?
Answer: Its T/C is 160 % of control and 177 % of control.

Question: And the T/C (dose: 83.0 mg/kg/injection, vehicle: water)?
Answer: The T/C was 182 % of control.

Question: What about the T/C (dose: 100.0 mg/kg/injection, vehicle: water) of the same molecule?
Answer: The T/C was 118 % of control.

Question: What about the T/C (dose: 139.0 mg/kg/injection, vehicle: water) of the same molecule?
Answer: The T/C was 200 % of control.

Question: `CCOP1(OCC)(SSC)OC(=O)C(C)S1` (stereo not drawn) was tested. Which T/C [14] did it give?
Answer: Its T/C is 92 % of control.

Question: And the T/C [9]?
Answer: Its T/C is 88 % of control.

Question: And the T/C [10]?
Answer: The T/C was 98 % of control.

Question: `COc1ccc(C(C)c2cc3c(cc2OC)OCO3)cc1` (stereo not drawn) was tested. Which T/C [3] did it give?
Answer: Its T/C is 115 % of control.

Question: What about the T/C [15] of the same molecule?
Answer: The T/C was 110 % of control.

Question: What does the source list for `Cc1ccc(Nc2nnc(CSc3ccc(Cl)cc3)s2)c(S(=O)(=O)O)c1`?
Answer: T/C [9]: 99 % of control; T/C [10]: 87 % of control; T/C [11]: 91 % of control

Question: How did the T/C [6] turn out when `CCOc1ccc(N2C(=O)C(=O)C(C(C)=O)C2=O)cc1` (stereo not drawn) was run?
Answer: The T/C was 102 % of control.

Question: What about the T/C [7] of the same molecule?
Answer: The T/C was 102 % of control.

Question: And the T/C [8]?
Answer: Its T/C is 101 % of control.

Question: What about the T/C [16] of the same molecule?
Answer: Its T/C is 100 % of control.

Question: Which results are given for `Cc1ccc(-n2c(CSc3ccc(Cl)cc3)nnc2SCc2nc3ccccc3[nH]2)cc1`?
Answer: T/C [14]: 95 % of control; T/C [9]: 104 % of control; T/C [10]: 100 % of control; T/C [11]: 95 % of control

Question: `CC1(C)Nc2cc3c(cc2-n2cccc21)oc1ccccc13` was tested. Which T/C (dose: 150.0 mg/kg/injection, vehicle: DMSO) did it give?
Answer: Its T/C is 101 % of control.

Question: And the T/C (dose: 300.0 mg/kg/injection, vehicle: DMSO)?
Answer: Its T/C is 100 % of control.

Question: And the T/C (dose: 600.0 mg/kg/injection, vehicle: DMSO)?
Answer: The T/C was 101 % of control.

Question: And the T/C (dose: 1200.0 mg/kg/injection, vehicle: DMSO)?
Answer: The T/C was 97 % of control.

Question: `O=C1C2C3C=CC(C2C(=O)N1CO)C1C2C(=O)N(CO)C(=O)C2C31` (stereo not drawn) was tested. Which T/C (dose: 12.5 mg/kg/injection, vehicle: water) did it give?
Answer: Its T/C is 103 % of control.

Question: And the T/C [12]?
Answer: Its T/C is 103 % of control.

Question: And the T/C [13]?
Answer: The T/C was 98 % of control.

Question: For `C[n+]1c(-c2ccc(/C=N/NC(=O)c3ccc(C(=O)N/N=C/c4ccc(-c5cn6ccccc6[n+]5C)cc4)cc3)cc2)cn2ccccc21`, which T/C [3] is on record?
Answer: Its T/C is 104 % of control.

Question: And the T/C [4]?
Answer: Its T/C is 98 % of control.

Question: What about the T/C [15] of the same molecule?
Answer: The T/C was 108 % of control.

Question: And the T/C [17]?
Answer: The T/C was 115 % of control.

Question: What about the T/C (dose: 800.0 mg/kg/injection, vehicle: saline with Tween-80) of the same molecule?
Answer: Its T/C is 112 % of control.

Question: For `Clc1ccc(CC(Cn2ccnc2)c2ccccc2Cl)cc1` (stereo not drawn), which T/C (dose: 15.63 mg/kg/injection, vehicle: saline with Tween-80) is on record?
Answer: Its T/C is 111 % of control.

Question: And the T/C (dose: 31.25 mg/kg/injection, vehicle: saline with Tween-80)?
Answer: The T/C was 102 % of control.

Question: What about the T/C (dose: 62.5 mg/kg/injection, vehicle: saline with Tween-80) of the same molecule?
Answer: Its T/C is 96 % of control.

Question: And the T/C (dose: 125.0 mg/kg/injection, vehicle: saline with Tween-80)?
Answer: Its T/C is 87 % of control.

Question: Which T/C [2] does the source give for `OC1(c2ccccc2)c2ccccc2NC2=NCCN21` (stereo not drawn) here?
Answer: Its T/C is 95 % of control.

Question: What about the T/C [3] of the same molecule?
Answer: The T/C was 96 % of control.

Question: How did the T/C [5] turn out when `CCOC(=O)C(C(=O)OCC)=C(N)C(Cl)(Cl)Cl` was run?
Answer: The T/C was 107 % of control.

Question: And the T/C [6]?
Answer: The T/C was 103 % of control.

Question: What about the T/C [7] of the same molecule?
Answer: The T/C was 101 % of control.

Question: What about the T/C [8] of the same molecule?
Answer: Its T/C is 103 % of control.

Question: What about the T/C [16] of the same molecule?
Answer: The T/C was 96 % of control.

Question: For `C=CCNC(=O)c1ccccc1SC(C)=O`, which T/C [3] is on record?
Answer: Its T/C is 103 % of control.

Question: What about the T/C [4] of the same molecule?
Answer: The T/C was 96 % of control.

Question: What about the T/C [15] of the same molecule?
Answer: Its T/C is 90 % of control.

Question: And the T/C [17]?
Answer: The T/C was 103 % of control.

Question: What does the source list for `OCC1OC(n2cnc3cc(Cl)c(Cl)cc32)C(O)C1O` (stereo not drawn)?
Answer: T/C [11]: 104 % of control; T/C (dose: 300.0 mg/kg/injection, vehicle: saline with Tween-80): 109 % of control; T/C (dose: 600.0 mg/kg/injection, vehicle: saline with Tween-80): 107 % of control

Question: How did the T/C [6] turn out when `O=C1CSC(c2cccs2)N1c1nncs1` (stereo not drawn) was run?
Answer: The T/C was 102 % of control and 111 % of control.

Question: And the T/C [7]?
Answer: The T/C was 98 % of control and 106 % of control.

Question: What about the T/C [8] of the same molecule?
Answer: Its T/C is 98 % of control and 106 % of control.

Question: And the T/C [16]?
Answer: Its T/C is 111 % of control.

Question: What about the T/C (dose: 800.0 mg/kg/injection, vehicle: Klucel (hydroxypropylcellulose) (HPC)) of the same molecule?
Answer: The T/C was 122 % of control.

Question: With `CS(=O)(=O)OCCCCOS(C)(=O)=O` as the molecule, how does the T/C (dose: 6.25 mg/kg/injection, vehicle: saline with Tween-80) read?
Answer: Its T/C is 100 % of control.

Question: What about the T/C [1] of the same molecule?
Answer: The T/C was 104 % of control.
